Reference: ChEMBL document CHEMBL5696441 (Nat Chem Biol, 2011)

What was measured:
[1] = target: Atypical kinase COQ8B, mitochondrial (Homo sapiens) (UniProt Q96D53); assay: Inhibition of ADCK4 (unknown origin) assessed as remaining activity at 1 uM by Kinome scan method relative to control
[2] = target: Serine/threonine-protein kinase Chk2 (Homo sapiens) (UniProt O96017); assay: Inhibition of CHEK2 (unknown origin) assessed as remaining activity at 1 uM by Kinome scan method relative to control
[3] = target: Tyrosine-protein kinase Fer (Homo sapiens) (UniProt P16591); assay: Inhibition of FER (unknown origin) assessed as remaining activity at 1 uM by Kinome scan method relative to control
[4] = tested on: Receptor-type tyrosine-protein kinase FLT3 (Homo sapiens), P36888 [D835Y]; assay: Inhibition of FLT3 D835Y mutant (unknown origin) assessed as remaining activity at 1 uM by Kinome scan method relative to control
[5] = tested on: Receptor-type tyrosine-protein kinase FLT3 (Homo sapiens), P36888 [N841I]; assay: Inhibition of FLT3 N841I mutant (unknown origin) assessed as remaining activity at 1 uM by Kinome scan method relative to control
[6] = target: Tyrosine-protein kinase Fyn (Homo sapiens) (UniProt P06241); assay: Inhibition of FYN (unknown origin) assessed as remaining activity at 1 uM by Kinome scan method relative to control
[7] = tested on: Phosphatidylinositol 4,5-bisphosphate 3-kinase catalytic subunit alpha isoform (Homo sapiens), P42336 [E545K]; assay: Inhibition of PIK3CA E545K mutant (unknown origin) assessed as remaining activity at 1 uM by Kinome scan method relative to control
[8] = target: cAMP-dependent protein kinase catalytic subunit PRKX (Homo sapiens) (UniProt P51817); assay: Inhibition of PRKX (unknown origin) assessed as remaining activity at 1 uM by Kinome scan method relative to control
[9] = target: Receptor-interacting serine/threonine-protein kinase 1 (Homo sapiens) (UniProt Q13546); assay: Inhibition of RIPK1 (unknown origin) assessed as remaining activity at 1 uM by Kinome scan method relative to control
[10] = target: Ribosomal protein S6 kinase alpha-1 (Homo sapiens) (UniProt Q15418); assay: Inhibition of N-terminal kinase domain RPS6KA1 (unknown origin) assessed as remaining activity at 1 uM by Kinome scan method relative to control
[11] = target: Uncharacterized serine/threonine-protein kinase SBK3 (Homo sapiens) (UniProt P0C264); assay: Inhibition of SgK110 (unknown origin) assessed as remaining activity at 1 uM by Kinome scan method relative to control
[12] = target: Serine/threonine-protein kinase SIK1 (Homo sapiens) (UniProt P57059); assay: Inhibition of SIK (unknown origin) assessed as remaining activity at 1 uM by Kinome scan method relative to control
[13] = target: Non-receptor tyrosine-protein kinase TYK2 (Homo sapiens) (UniProt P29597); assay: Inhibition of TYK2 JH2 domain (unknown origin) assessed as remaining activity at 1 uM by Kinome scan method relative to control
[14] = target: Tyrosine-protein kinase ABL1 (Homo sapiens) (UniProt P00519); assay: Inhibition of human ABL1 assessed as residual activity at 1 uM using poly(Ala,Glu,Lys,Tyr)6:2:5:1 as substrate in presence of 33P-ATP by ProQinase assay relative to control
[15] = target: Dual specificity protein kinase CLK4 (Homo sapiens) (UniProt Q9HAZ1); assay: Inhibition of human CLK4 assessed as residual activity at 1 uM using MBP as substrate in presence of 33P-ATP by ProQinase assay relative to control
[16] = target: G protein-coupled receptor kinase 3 (Homo sapiens) (UniProt P35626); assay: Inhibition of human GRK3 assessed as residual activity at 1 uM using casein as substrate in presence of 33P-ATP by ProQinase assay relative to control
[17] = target: Hepatocyte growth factor receptor (Homo sapiens) (UniProt P08581); assay: Inhibition of human MET assessed as residual activity at 1 uM using poly(Ala,Glu,Lys,Tyr)6:2:5:1 as substrate in presence of 33P-ATP by ProQinase assay relative to control
[18] = target: T1, Serine/threonine-protein kinase PLK4 (Homo sapiens) (UniProt O00444); assay: Inhibition of human SAK assessed as residual activity at 1 uM using p38-alpha KA as substrate in presence of 33P-ATP by ProQinase assay relative to control
T1 sequence (whole entry): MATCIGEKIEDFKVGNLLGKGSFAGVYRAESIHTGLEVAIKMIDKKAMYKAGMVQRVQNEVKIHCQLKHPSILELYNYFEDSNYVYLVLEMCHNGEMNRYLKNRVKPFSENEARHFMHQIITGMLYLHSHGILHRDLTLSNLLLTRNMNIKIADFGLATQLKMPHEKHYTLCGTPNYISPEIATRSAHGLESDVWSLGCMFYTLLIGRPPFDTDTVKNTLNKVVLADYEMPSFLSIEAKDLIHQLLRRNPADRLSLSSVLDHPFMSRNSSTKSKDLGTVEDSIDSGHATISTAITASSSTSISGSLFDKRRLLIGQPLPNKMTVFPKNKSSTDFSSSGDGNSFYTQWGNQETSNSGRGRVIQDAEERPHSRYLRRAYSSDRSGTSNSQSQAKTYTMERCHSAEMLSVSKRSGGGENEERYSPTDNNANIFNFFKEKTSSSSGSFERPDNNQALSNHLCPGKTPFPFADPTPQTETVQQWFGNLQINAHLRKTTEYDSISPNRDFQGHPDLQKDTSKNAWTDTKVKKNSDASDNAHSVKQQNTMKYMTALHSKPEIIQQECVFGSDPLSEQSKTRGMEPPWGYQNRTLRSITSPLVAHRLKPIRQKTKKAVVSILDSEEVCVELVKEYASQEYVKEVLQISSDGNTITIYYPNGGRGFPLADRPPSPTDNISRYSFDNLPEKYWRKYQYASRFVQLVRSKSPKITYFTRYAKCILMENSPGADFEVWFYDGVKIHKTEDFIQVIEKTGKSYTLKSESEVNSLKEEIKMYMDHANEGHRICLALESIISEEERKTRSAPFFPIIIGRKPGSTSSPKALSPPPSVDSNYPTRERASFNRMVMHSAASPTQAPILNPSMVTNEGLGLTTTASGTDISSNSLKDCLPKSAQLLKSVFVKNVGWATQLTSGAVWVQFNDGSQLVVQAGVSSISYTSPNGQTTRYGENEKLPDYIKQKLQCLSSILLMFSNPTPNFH

[19] = target: Testis-specific serine/threonine-protein kinase 2 (Homo sapiens) (UniProt Q96PF2); assay: Inhibition of human TSK2 assessed as residual activity at 1 uM using RBER-CHKtide as substrate in presence of 33P-ATP by ProQinase assay relative to control
[20] = target: Mitogen-activated protein kinase kinase kinase 20 (Homo sapiens) (UniProt Q9NYL2); assay: Inhibition of human ZAK assessed as residual activity at 1 uM using MBP as substrate in presence of 33P-ATP by ProQinase assay relative to control
Chain of Mitogen-activated protein kinase kinase kinase 20 (Homo sapiens) (Q9NYL2 2-800 limits assumed): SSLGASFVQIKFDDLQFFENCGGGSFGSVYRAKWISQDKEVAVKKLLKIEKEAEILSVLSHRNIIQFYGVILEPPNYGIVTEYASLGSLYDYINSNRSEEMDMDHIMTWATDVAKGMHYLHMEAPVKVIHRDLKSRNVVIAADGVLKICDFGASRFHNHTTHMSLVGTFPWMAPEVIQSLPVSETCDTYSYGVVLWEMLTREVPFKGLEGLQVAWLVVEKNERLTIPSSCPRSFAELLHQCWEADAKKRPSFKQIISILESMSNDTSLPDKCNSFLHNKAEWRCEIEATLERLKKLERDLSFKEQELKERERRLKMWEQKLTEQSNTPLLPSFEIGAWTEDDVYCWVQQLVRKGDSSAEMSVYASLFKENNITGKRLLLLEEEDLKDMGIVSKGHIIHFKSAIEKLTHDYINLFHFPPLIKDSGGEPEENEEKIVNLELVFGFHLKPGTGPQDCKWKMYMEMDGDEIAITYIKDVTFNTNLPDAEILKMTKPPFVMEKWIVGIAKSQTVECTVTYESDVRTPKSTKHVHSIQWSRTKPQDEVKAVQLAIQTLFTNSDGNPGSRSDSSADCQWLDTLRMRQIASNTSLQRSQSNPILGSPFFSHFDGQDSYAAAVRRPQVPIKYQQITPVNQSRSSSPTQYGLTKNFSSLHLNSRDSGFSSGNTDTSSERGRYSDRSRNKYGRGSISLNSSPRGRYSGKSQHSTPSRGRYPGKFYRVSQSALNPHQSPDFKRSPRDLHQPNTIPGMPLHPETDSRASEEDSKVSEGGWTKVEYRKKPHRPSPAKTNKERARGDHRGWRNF

Chain of Non-receptor tyrosine-protein kinase TYK2 (Homo sapiens) (P29597 whole entry, the tested form may be a part): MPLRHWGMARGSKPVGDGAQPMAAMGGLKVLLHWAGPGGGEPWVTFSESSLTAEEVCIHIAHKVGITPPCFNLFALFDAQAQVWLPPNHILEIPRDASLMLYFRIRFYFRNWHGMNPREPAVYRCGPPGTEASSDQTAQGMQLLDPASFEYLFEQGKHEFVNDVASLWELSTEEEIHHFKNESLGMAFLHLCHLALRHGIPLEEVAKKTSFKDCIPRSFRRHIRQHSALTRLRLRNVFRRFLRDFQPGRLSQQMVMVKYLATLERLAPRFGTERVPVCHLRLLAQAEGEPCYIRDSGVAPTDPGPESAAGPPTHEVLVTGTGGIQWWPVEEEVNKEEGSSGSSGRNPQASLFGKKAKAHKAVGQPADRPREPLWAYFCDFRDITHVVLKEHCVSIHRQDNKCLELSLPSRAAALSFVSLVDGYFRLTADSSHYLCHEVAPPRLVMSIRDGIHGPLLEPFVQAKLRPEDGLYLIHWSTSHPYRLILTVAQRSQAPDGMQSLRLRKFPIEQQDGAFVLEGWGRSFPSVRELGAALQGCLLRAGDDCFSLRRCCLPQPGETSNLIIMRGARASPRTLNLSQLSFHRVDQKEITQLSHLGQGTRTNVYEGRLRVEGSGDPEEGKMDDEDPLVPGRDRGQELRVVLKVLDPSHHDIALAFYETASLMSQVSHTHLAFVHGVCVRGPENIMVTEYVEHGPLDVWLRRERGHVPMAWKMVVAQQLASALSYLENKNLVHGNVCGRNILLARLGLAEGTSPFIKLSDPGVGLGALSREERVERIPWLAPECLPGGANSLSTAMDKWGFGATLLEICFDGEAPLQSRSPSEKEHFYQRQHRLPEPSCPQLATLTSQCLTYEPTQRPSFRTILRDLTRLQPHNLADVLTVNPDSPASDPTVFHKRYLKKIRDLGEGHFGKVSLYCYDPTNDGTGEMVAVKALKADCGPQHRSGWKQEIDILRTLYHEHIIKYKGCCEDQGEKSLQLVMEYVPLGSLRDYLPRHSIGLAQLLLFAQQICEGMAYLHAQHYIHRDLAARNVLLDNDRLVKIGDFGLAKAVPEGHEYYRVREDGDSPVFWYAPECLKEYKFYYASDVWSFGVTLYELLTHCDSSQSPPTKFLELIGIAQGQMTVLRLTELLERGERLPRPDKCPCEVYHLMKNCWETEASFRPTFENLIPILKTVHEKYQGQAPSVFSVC
Chain of Phosphatidylinositol 4,5-bisphosphate 3-kinase catalytic subunit alpha isoform (Homo sapiens), P42336 [E545K] (P42336 whole entry E545K, canonical isoform): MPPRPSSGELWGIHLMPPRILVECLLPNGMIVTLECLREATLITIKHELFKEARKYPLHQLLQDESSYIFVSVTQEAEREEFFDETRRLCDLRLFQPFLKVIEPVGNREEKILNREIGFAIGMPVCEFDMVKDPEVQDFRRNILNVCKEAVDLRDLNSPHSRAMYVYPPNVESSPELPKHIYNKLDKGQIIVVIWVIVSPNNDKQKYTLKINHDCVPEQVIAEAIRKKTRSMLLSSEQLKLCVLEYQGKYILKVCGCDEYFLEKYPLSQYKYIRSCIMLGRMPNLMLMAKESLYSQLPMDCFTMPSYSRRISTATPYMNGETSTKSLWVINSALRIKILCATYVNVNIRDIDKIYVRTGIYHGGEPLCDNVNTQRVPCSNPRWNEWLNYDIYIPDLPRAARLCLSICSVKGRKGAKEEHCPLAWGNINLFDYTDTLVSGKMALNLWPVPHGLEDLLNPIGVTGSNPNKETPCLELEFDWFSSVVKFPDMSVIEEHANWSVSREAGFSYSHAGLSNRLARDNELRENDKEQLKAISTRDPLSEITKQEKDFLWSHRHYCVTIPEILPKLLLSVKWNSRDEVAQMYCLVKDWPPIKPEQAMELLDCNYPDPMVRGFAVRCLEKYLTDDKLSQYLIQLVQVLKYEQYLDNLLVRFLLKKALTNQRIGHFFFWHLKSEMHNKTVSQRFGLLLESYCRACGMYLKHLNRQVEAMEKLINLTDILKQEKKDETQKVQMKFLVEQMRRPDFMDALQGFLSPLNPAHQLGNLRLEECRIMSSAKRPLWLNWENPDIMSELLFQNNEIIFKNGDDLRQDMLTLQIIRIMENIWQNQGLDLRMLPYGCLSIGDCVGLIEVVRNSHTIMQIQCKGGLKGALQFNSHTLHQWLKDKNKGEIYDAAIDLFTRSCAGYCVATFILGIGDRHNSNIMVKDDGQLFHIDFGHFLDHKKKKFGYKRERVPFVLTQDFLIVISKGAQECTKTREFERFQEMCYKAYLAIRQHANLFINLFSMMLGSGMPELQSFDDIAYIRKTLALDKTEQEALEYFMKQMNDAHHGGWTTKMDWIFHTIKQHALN
Chain of Tyrosine-protein kinase Fer (Homo sapiens) (P16591 whole entry, looked up): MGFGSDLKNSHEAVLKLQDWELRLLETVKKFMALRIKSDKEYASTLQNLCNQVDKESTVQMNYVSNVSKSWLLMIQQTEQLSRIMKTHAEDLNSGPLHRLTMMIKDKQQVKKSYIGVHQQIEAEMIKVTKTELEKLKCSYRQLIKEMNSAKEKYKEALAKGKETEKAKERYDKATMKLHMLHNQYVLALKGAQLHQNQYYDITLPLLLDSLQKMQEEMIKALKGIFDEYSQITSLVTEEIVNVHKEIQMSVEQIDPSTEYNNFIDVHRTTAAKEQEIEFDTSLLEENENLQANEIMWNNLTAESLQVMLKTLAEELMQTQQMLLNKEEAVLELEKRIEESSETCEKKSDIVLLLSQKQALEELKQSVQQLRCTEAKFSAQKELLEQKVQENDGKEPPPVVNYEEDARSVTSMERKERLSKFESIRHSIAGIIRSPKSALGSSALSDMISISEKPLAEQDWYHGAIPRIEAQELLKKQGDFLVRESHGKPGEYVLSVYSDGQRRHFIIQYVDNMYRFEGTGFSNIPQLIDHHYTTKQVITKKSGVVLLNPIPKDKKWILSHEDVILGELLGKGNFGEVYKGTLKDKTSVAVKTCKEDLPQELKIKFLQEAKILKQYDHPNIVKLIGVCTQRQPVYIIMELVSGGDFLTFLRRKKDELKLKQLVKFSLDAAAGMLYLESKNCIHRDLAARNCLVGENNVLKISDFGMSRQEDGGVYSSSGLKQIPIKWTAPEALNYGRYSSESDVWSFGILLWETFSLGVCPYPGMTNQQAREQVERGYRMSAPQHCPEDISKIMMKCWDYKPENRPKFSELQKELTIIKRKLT
Chain of Testis-specific serine/threonine-protein kinase 2 (Homo sapiens) (Q96PF2 whole entry): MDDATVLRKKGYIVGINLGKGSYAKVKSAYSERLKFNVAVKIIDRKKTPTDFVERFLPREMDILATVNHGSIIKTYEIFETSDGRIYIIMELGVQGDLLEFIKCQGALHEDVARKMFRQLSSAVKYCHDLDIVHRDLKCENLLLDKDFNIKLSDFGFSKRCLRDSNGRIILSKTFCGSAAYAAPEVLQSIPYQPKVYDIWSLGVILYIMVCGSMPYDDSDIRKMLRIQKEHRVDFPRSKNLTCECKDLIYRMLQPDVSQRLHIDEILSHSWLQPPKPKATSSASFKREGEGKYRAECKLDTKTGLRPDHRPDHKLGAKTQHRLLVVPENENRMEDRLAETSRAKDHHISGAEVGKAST
Chain of Dual specificity protein kinase CLK4 (Homo sapiens) (Q9HAZ1 whole entry, looked up): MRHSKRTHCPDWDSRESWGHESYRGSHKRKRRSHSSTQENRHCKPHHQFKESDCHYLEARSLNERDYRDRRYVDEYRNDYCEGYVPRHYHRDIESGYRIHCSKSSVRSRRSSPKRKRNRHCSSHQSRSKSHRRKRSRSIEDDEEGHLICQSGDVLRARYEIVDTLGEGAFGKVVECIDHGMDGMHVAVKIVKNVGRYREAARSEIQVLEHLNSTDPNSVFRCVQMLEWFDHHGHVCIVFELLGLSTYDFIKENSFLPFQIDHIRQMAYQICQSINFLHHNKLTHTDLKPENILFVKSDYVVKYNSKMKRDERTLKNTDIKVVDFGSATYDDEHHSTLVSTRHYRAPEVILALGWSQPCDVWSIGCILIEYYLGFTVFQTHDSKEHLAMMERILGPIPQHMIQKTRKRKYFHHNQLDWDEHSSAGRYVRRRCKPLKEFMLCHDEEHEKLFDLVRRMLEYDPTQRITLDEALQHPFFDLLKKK
Chain of cAMP-dependent protein kinase catalytic subunit PRKX (Homo sapiens) (P51817 whole entry): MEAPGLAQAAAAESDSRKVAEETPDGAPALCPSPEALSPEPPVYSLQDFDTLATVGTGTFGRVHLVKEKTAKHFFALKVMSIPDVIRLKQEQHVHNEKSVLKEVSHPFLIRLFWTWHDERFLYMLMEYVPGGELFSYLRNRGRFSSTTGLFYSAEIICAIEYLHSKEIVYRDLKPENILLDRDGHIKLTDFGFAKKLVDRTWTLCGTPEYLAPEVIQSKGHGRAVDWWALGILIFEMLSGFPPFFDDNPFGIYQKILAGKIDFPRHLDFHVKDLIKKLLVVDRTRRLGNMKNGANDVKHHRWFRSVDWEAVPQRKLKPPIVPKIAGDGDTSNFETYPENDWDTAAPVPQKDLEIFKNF

O=C1c2ccc(Nc3ccc(F)cc3F)cc2CCc2ccc(OC[C@H](O)CO)cc21 [Skepinone-L]
Activity [1]: 100% | Activity [2]: 100% | Activity [3]: 100% | Activity [4]: 98% | Activity [5]: 96% | Activity [6]: 98% | Activity [7]: 100% | Activity [8]: 89% | Activity [9]: 100% | Activity [10]: 100% | Activity [11]: 90% | Activity [12]: 100% | Activity [13]: 100% | Activity [14]: 95% | Activity [15]: 100% | Activity [16]: 95% | Activity [17]: 108% | Activity [18]: 62% | Activity [19]: 82% | Activity [20]: 98%
